Reference: US10203334B2, “Methods and compositions related to nucleic acid binding assays” (Nubad, LLC, priority 2012, dated 2019)

Key:
[1] = system: d(CCCCGGGG)2; assay: ITC derived binding constant; details: 50 mM KCl, 10 mM SC, 0.5 mM EDTA (pH 6.0) at 25° C.
Source text: (§1) Determination of the pKa was done using chemometric analysis of the absorption profiles at various pH values of the covalently attached fluorescein moiety (Kubista, M., et al., (1993) Anal. Chem. 65, 994-998, Kubista, M., et al., (1995) Anal. Chim. Acta. 302, 121-125.2, 3). The pH dependent absorption profile of free fluorescein-neomycin was first analyzed to determine its pKa. […] The electrostatic potential (P) calculated from the shift in pKa, and the ITC derived binding constant (K). Electrostatic potential experiments performed in 100 mM NaCl, 10 mM SC, 0.5 mM EDTA at 25° C. ITC experiments performed in 50 mM KCl, 10 mM SC, 0.5 mM EDTA (pH 6.0) at 25° C. […] Fluorescein-neomycin concentration was 10 μM. Table 1 represents the pKa values determined from the inflection point of the pH dependent absorbance scans of free fluorescein-neomycin, fluorescein-neomycin with one molar equivalent d(CCCCGGGG)2 and d(GGGGCCCC)2. The electrostatic potential (Y) calculated from the shift in pKa, and the ITC derived binding constant (K).

[2] = system: d(GGGGCCCC)2; assay: ITC derived binding constant; details: 50 mM KCl, 10 mM SC, 0.5 mM EDTA (pH 6.0) at 25° C.
Source text: as §1

NCC1O[C@H](OC2C(O)C(OC3C(O)[C@H](N)CC(N)[C@H]3O[C@H]3OC(CN)[C@@H](O)C(O)C3N)O[C@@H]2CSCCNC(=O)CCSCC(=O)Nc2ccc(-c3c4ccc(=O)cc-4oc4cc(O)ccc34)c(C(=O)O)c2)C(N)C(O)[C@@H]1O (some centres unmarked) [F-neo (42a), Neomycin-Fluorescein Conjugate]
K (M^−1) × 10^5 [1]: 7.97 ± 10.9 (M^−1) × 10^5
K (M^−1) × 10^5 [2]: 66.3 ± 9.7 (M^−1) × 10^5
